Test [1] addresses T1, p27-D2/Cdk2/cyclin A (Homo sapiens, UniProt P46527).
T1 construct: p27-D2 (residues 58-105 of human p27); 6xHis (N, cleaved yes); made in house; host or cells: E. coli for p27-D2
The test is described as follows: 2D 1H-15N TROSY-HSQC NMR displacement of p27-D2 from Cdk2/cyclin A. The format is binding. The following applies: 3 mM SJ403, 100 μM complex, 308 K. The method, then:
We next used NMR spectroscopy to monitor the displacement of ^2H/^13C/^15N-labeled p27-D2 from Cdk2/cyclin A by SJ403; the complex of p27-D2 with Cdk2/cyclin A (100 μM) was prepared with a slight excess of ^2H/^13C/^15N-p27-D2 (mole ratio, 1.1:1.0 p27-D2:Cdk2/cyclin A). […] In this method, the relative population of the free state resonances (p^f; for the resonance of each p27-D2 residue) was determined as a fraction of the total intensity of both free and bound resonances for a given residue. These values were compared by forming the ratio of the two relative free state populations (p^fw/SJ403/p^fw/o SJ403); values greater than 1 indicated compound-dependent displacement. The relative populations for the bound state (p^b) were also determined for samples without (p^bw/o SJ403) and with SJ403 (p^bw/SJ403). […]
Figure 5 2D ^1H-^15N TROSY-HSQC NMR analysis of displacement of ^15N-p27-D2 from Cdk2/cyclin A by SJ403. 2D ^1H-^15N TROSY-HSQC NMR spectra of p27-D2/Cdk2/cyclin A in the absence (control) and presence of SJ403 (3 mM), respectively, were recorded. […]

For test [2], the target named is T2, p21-KID (Homo sapiens, UniProt P38936).
T2 construct: made in house
The test is described as follows: 2D 1H-15N HSQC NMR with p21-KID. The format is binding. To be noted: 1 mM compound, 20 μM p21-KID, 298 K. The protocol: Figure 8 Interaction of p21-KID with representative p27 fragment hits.
Screening and validation NMR experiments were performed at 298 K (25 °C) using either a Varian Inova 600 MHz spectrometer equipped with a triple resonance (HCN) room temperature gradient probe or a Bruker Avance 600 MHz spectrometer equipped with TCI cryogenic gradient probe and a SampleJet sample changer. Fragment molecules were initially analyzed as pools of five molecules dissolved at 10 mM each in DMSO-D6. […] For initial fragment screening experiments, one-dimensional (1D) ^1H- and WaterLOGSY[35] NMR spectra were recorded for compound pools without and with protein. […] DMSO-D6 was added to maintain a constant concentration (2% vol/vol). […] Tryptophan and tyrosine, respectively, were titrated into ^15N-p27-KID (100 μM) up to 3 mM. […] 2D ^1H-^15N TROSY-HSQC NMR experiments with ^2H/^13C/^15N-p27-D2/Cdk2/cyclin A and SJ403 have been recorded at 308 K (35 °C). 2D ^1H-^15N HSQC experiments of representative fragment hits (1 mM of SJ319843, group 1 and SJ403, group 2, respectively) with ^15N-p21-KID (20 μM) were recorded at 298 K using a Bruker Avance 600 MHz spectrometer. NMR spectra were processed using Bruker Topspin software and analyzed using computer-aided resonance assignment (CARA) software.

SMILES strings stand for the structures.

T1 sequence (P46527 58-105): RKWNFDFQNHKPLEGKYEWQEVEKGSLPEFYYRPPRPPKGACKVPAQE
T2 sequence (P38936 9-84 limits assumed): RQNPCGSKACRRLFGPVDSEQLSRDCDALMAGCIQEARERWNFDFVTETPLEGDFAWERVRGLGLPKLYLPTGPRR

As for `CCn1c(C)c(C)n2c3c(=O)n(C)c(=O)n(C)c3nc12` [SJ403], the “displacement of p27-D2 from Cdk2/cyclin A by NMR” value in test [1] is reported as “partial displacement”. Further, the “interaction with p21-KID (1H chemical shift perturbations)” value in test [2] was “interacted with residues near W49 and W65 of p21”.

(Values after publication PMC4623604, “Discovery of Small Molecules that Inhibit the Disordered Protein, p27^Kip1” (Scientific Reports, 2015).)
